Reference: PubChem BioAssay (NCI)
“And” between values parts separate entries of the source, which are not always exact repeats. Equal values may be shown once.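 Briefly, cells in 96-well plates were exposed to five compound concentrations for 48 h, and endpoints were estimated by linear interpolation. GI50: concentration for 50% inhibition of growth. At the TGI there is no net growth.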 Where a SMILES comes first, the peptide text is derived from it. Bridges are numbered along the chain shown (N, C = ends). [ ]: non-standard residue; d: D form. aThr = C[C@H](O)[C@H](N)C(=O)O

Legend:
Assay in all cases: NCI tumour cell line growth inhibition, 48 h
SK-MEL-28 melanoma = test system: SK-MEL-28 melanoma
NCI-H522 lung = test system: NCI-H522 lung
NCI/ADR-RES ovarian = test system: NCI/ADR-RES ovarian
786-0 renal = test system: 786-0 renal
T-47D breast = test system: T-47D breast
A498 renal = test system: A498 renal
HCT-15 colon = test system: HCT-15 colon
SK-MEL-2 melanoma = test system: SK-MEL-2 melanoma
PC-3 prostate = test system: PC-3 prostate
OVCAR-3 ovarian = test system: OVCAR-3 ovarian

SMILES | GI50 (SK-MEL-28 melanoma) | TGI (SK-MEL-28 melanoma) | GI50 (NCI-H522 lung) | TGI (NCI-H522 lung) | GI50 (NCI/ADR-RES ovarian) [µM] | TGI (NCI/ADR-RES ovarian) [µM] | GI50 (786-0 renal) | TGI (786-0 renal) | GI50 (T-47D breast) | TGI (T-47D breast) | GI50 (A498 renal) | TGI (A498 renal) | GI50 (HCT-15 colon) | TGI (HCT-15 colon) [µM] | GI50 (SK-MEL-2 melanoma) | TGI (SK-MEL-2 melanoma) | GI50 (PC-3 prostate) [µM] | TGI (PC-3 prostate) | GI50 (OVCAR-3 ovarian) | TGI (OVCAR-3 ovarian)
CCSCC1CC(O)(c2ccccc2)C(c2ccccc2)C(c2ccc(F)cc2)O1 (stereo not drawn) | 1.74 µM | 3.4 µM | 1.57 µM | 4.84 µM | 1.89 | 6.67 | 2.19 µM | 5.08 µM | 1.56 µM | 4.8 µM | 2.15 µM | 3.7 µM | 1.76 µM | 3.99 | 1.98 µM | 4 µM | 1.95 | 9.06 µM | 2.19 µM | 5.26 µM
CCN(CC)c1ccc2nc3ccc(=[N+](CC)CC)cc-3oc2c1 | 1.5 µM | 27.7 µM | 0.0534 µM | 0.329 µM | 6.52 | > 73.3 | 1.18 µM | 2.6 µM | 0.105 µM | 1.18 µM | 1.01 µM | 17.5 µM | 1.49 µM | > 64.8 | 1.36 µM | 3.99 µM | 0.0934 | > 100 µM | 0.0318 µM | 0.362 µM
CC(=O)NC1C(O[C@H]2C[C@H]3[C@@H]4CC=C5C[C@@H](O)CC[C@]5(C)[C@H]4CC[C@]3(C)[C@H]2[C@H](C)C(=O)CCC(C)C)OCC(O)C1O (stereo partly drawn) | 0.928 µM | 2.78 µM | 8.72 µM | 18.8 µM | 13.1 | > 42.5 | 0.553 µM | 2.21 µM | 2.28 µM | 30.9 µM | 0.977 µM | 2.88 µM | 4.38 µM | 10.5 | 1.35 µM | 4.11 µM | 2.05 | 10.3 µM | 5.2 µM | 34 µM
O=C(O)CN(CCN(CC(=O)O)CC(=O)O)CC(=O)O.[Mn+2] | > 100 µM | > 100 µM | > 100 µM | > 100 µM | > 100 | > 100 | > 100 µM | > 100 µM | > 100 µM | > 100 µM | > 100 µM | > 100 µM | > 100 µM | > 100 | > 100 µM | > 100 µM | > 100 | > 100 µM | > 100 µM | > 100 µM
Cc1noc(NC(=O)Nc2ccccc2F)c1C#N |  | > 100 µM |  | > 34.7 µM |  | > 100 |  | > 47.1 µM |  | > 77.4 µM |  | > 50.9 µM |  | > 100 |  | > 54.9 µM |  | > 41.3 µM |  | > 100 µM
C#Cc1ccc(-n2c(/C=C/c3ccc(O)cc3)nc3ncccc3c2=O)cc1 | 5.97 µM | > 100 µM | 2 µM | 6.04 µM | 5.27 | > 100 | 4.88 µM | 50.4 µM | 4.63 µM | > 100 µM | 2.48 µM | 6.88 µM | 4.65 µM | > 100 | 3.95 µM | 40.7 µM | 3.87 | 47.9 µM | 2.41 µM | 5.69 µM
CC(C)C[C@@H]1NC(=O)[C@@H]2CCCN2C(=O)[C@@H]2CCCN2C(=O)[C@H](CC(C)C)NC(=O)[C@H](CO)NC(=O)[C@H](CCCCN)NC(=O)[C@H]([C@H](C)O)NC(=O)[C@@H]2CSSC[C@@H](NC1=O)C(=O)N[C@@H](Cc1ccccc1)C(=O)N1CCC[C@H]1C(=O)N[C@@H](CC(=O)O)C(=O)NCC(=O)N[C@@H](CCCN=C(N)N)C(=O)N2 (cyclo(C[aThr]KSLPPL[dC]FPDGR); disulfide 1-9) | > 50 µM | > 50 µM | > 50 µM | > 50 µM | > 50 | > 50 | > 50 µM | > 50 µM | > 50 µM | > 50 µM | 13.2 µM | 33.5 µM | > 50 µM | > 50 | > 50 µM | > 50 µM | > 50 | > 50 µM | > 50 µM | > 50 µM
COc1ccc(-c2cc(/C=C/C(=O)c3ccc(N)cc3)[nH]n2)cc1OC | 2.14 µM | 5.66 µM | 1.65 µM | 3.22 µM | 6.21 | > 100 | 1.88 µM | 4.39 µM | 4.25 µM | 26 µM | 2.37 µM | 7.09 µM | 1.7 µM | 5.37 | 8.44 µM | 22.2 µM | 3.71 | 19.8 µM | 1.92 µM | 4.19 µM
COc1cc2nnc3c4cccnc4[nH]c3c2cc1OC | 18.8 µM and 4.49 µM | 50 µM and > 100 µM | 1.65 µM and 2.05 µM | 16.6 µM and 7.6 µM | 2.19 | 50 | 1.46 µM and 0.319 µM | 7.1 µM and 1.63 µM | 0.595 µM and 0.401 µM | 5.61 µM and 3.42 µM | 9.26 µM and 2.74 µM | 26.2 µM and 12.4 µM | 2.3 µM and 1.43 µM |  | 13.8 µM and 11.3 µM | 50 µM and 37.9 µM |  | 50 µM and > 100 µM | 1.37 µM and 1.15 µM | 22.6 µM and 5.5 µM
CCCCS(=O)c1sc2nc(-c3cccs3)cc(-c3ccccc3)c2c1N (stereo not drawn) | 29.2 µM | > 100 µM | 17.3 µM | > 87.8 µM | 6.42 | > 100 | 8.26 µM | > 100 µM | 5.77 µM | 46.7 µM | 8.02 µM | 76.9 µM | 9.02 µM | > 100 | 17.3 µM | 47.8 µM | 3.45 | > 86.6 µM | 14.3 µM | > 100 µM
C=CCN(CC=C)C(=O)c1cc(C)nc2c1c(=O)n(-c1ccccc1)c(=O)n2CCCN1CCN(c2ccccc2OC)CC1 | > 50 µM | > 50 µM | > 50 µM | > 50 µM | > 50 | > 50 | > 50 µM | > 50 µM | > 50 µM | > 50 µM | > 50 µM | > 50 µM | > 50 µM | > 50 | > 50 µM | > 50 µM | > 50 | > 50 µM | > 50 µM | > 50 µM
COc1cc(OC)c(OC)cc1/C=C/c1nc2ccccc2s1 |  | > 100 µM |  | > 100 µM |  | > 100 |  | > 100 µM |  | > 100 µM |  | > 100 µM |  | > 100 |  | > 100 µM |  | > 100 µM |  | > 100 µM
